From patent publication US8143225B2 (priority 2002, dated 2012)
Like-named read-outs stand apart in the source and are kept apart here.

Columns and labels:
[1] = human, in vivo, cited from earlier work
[2] = test system: adult males and females treated for nocturia; test: Clinical observations in adult males and females treated with desmopressin for nocturia; type: in vivo, human
Description: Hyponatremia can result in seizures, cardiac arrhythmias, cerebral edema and death.

[3] = clinical; conditions: male, human, in vivo
Description: Twenty-four healthy non-smoking male volunteers were enrolled in the present study. The study was designed as a one-centre, open-labelled, randomized, balanced, 4-way cross-over phase I study. […] Between the doses there was a washout period of 72 hours. In order to standardize the buccal mucosa before administration of the orodispersible tablet, the subjects were asked to avoid foods, chewing gun etc. Subjects were allowed to brush their teeth in the morning before dosing, but without toothpaste. […] 3.2 (Pharsight Corporation, US). […] Values below LOQ not followed by values above the LOQ are excluded from the NCA analysis, and set to zero in the descriptive statistics on concentrations.

[4] = Bioavailability of desmopressin conventional tablets (Comparative Example 4); conditions: male, human, in vivo, po, 200 μg
Description: Thirty-six healthy male volunteers (Caucasian, Black and Hispanic) were enrolled in this study, which was designed as an open label, single dose, 3-way crossover study.

[5] = in vivo; cited from earlier work

For NC(=O)CC[C@@H]1NC(=O)[C@H](Cc2ccccc2)NC(=O)[C@H](Cc2ccc(O)cc2)NC(=O)CCSSC[C@@H](C(=O)N2CCC[C@H]2C(=O)N[C@H](CCCN=C(N)N)C(=O)NCC(N)=O)NC(=O)[C@H](CC(N)=O)NC1=O [desmopressin, 1-desamino-8-D-arginine vasopressin], the “% Bioavailability” value ([1]; iv) is given as “Intravenous (100) %”, the “% Bioavailability” value ([1]; po) is given as “Oral (0.1) %” and the bioavailability ([1]; po) is given as 0.1-0.15%. For the same compound, the “% Bioavailability” value ([1]; sc) was “Subcutaneous (±90) %”, the incidence of nocturia ([2]; oral doses 100 to 400 mcg and intranasal doses 10 to 20 mcg) was “decreased the incidence of nocturia” and the incidence of hyponatremia ([2]; standard oral doses 100 to 400 mcg and intranasal doses 10 to 20 mcg, nocturia patients) was “unexpectedly high incidence of hyponatremia”. It also gave a bioavailability [3] of 0.23 to 0.38%, a bioavailability ([3]; bioavailability) of 0.3% and a bioavailability ([4]; oral 1×200 μg tablet (Comparative Example 2)) of 0.16%. For the same compound, the bioavailability ([4]; oral 2×100 μg tablets (Comparative Example 3)) was 0.13% and the absorption [5] was “not significantly absorbed”.
